# Experimental data reported in US6358885B1, “Substituted phenylheterocyclic herbicides” (Mississippi State University, priority 1992, dated 2002).
# Legend:
# rape = experiment: Test F preemergence/postemergence greenhouse plant response rating 0 to 100; assay type: in vivo, Brassica napus; details: POSTEMERGENCE, 0 to 100 scale
# Text: (§1) Compounds evaluated in this test were formulated in a non-phytoxic solvent and applied to the soil surface before plant seedlings emerged (preemergence application) and to plants that were in the one-to-four leaf stage (postemergence application). A sandy loam soil was used for the preemergence test while a mixture of sandy loam soil and greenhouse potting mix in a 60:40 ratio was used for the postemergence test. Test compounds were applied within approximately one day after planting seeds for the preemergence test. Plantings of these crops and weed species were adjusted to produce plants of appropriate size for the postemergence test. All plant species were grown using normal greenhouse practices. Crop and weed species include winter barley (Hordeum vulgare cv. ‘Igri’), blackgrass (Alopecurus myosuroides), chickweed (Stellaria media), downy brome (Bromus tectorum), field violet (Viola arvensis), galium (Galium aparine), green foxtail (Setaria viridis), kochia (Kochia scoparia), lambsquarters (Chenopodium album), speedwell (Veronica persica), rape (Brassica napus), ryegrass (Lolium multiflorum), sugar beet (Beta vulgaris cv. ‘USl’), sunflower (Helianthus annuus cv. ‘Russian Giant’), spring wheat (Triticum aestivum cv. ‘ERA’), winter wheat (Triticum aestivum cv. ‘Talent’), wild buckwheat (Polygonum convolvulus), wild mustard (Sinapis arvensis), wild oat (Avena fatua), and wild radish (Raphanus raphanistrum). Blackgrass, galium and wild oat were treated at two growth stages. […] Treated plants and untreated controls were maintained in a greenhouse for approximately 21 to 28 days, after which all treated plants were compared to untreated controls and visually evaluated. […] A dash response (-) means no test result.
# wild buckwheat = experiment: as above; assay type: in vivo, Polygonum convolvulus; details: POSTEMERGENCE, 0 to 100 scale
# Text: as §1
# sugar beet = experiment: as above; assay type: in vivo, Beta vulgaris cv. ‘USl’; details: POSTEMERGENCE, 0 to 100 scale
# Text: as §1
# green foxtail = experiment: as above; assay type: in vivo, Setaria viridis; details: POSTEMERGENCE, 0 to 100 scale
# Text: as §1
# blackgrass = experiment: as above; assay type: in vivo, Alopecurus myosuroides; details: POSTEMERGENCE, 0 to 100 scale; for Blackgrass (1) plant response rating: stage (1) two to three leaves; for Blackgrass (2) plant response rating: stage (2) approximately four leaves or initial tillering
# Text: as §1
# speedwell = experiment: as above; assay type: in vivo, Veronica persica; details: POSTEMERGENCE, 0 to 100 scale
# Text: as §1
# barnyardgrass [1] = experiment: Test E paddy water application plant response rating 0 to 100; assay type: in vivo, Echinochloa crus-galli; details: Flood, 0 to 100 scale, approx. 21 days
# Text: (§2) Plastic pots were partially filled with silt loam soil. […] At testing, the water level for all plantings was raised to 2 cm above the soil surface. Chemical treatments were formulated in a non-phytotoxic solvent and applied directly to the paddy water. Treated plants and controls were maintained in a greenhouse for approximately 21 days, after which all species were compared to controls and visually evaluated. […] A dash (-) response means no test result.
# Japonica rice [2] = experiment: as above; assay type: in vivo, oryza sativa; details: Flood, 0 to 100 scale, approx. 21 days
# Text: as §2
# barnyardgrass [3] = experiment: Test D paddy water application plant response rating 0 to 100; assay type: in vivo, Echinochloa crus-galli; details: 0 to 100 scale, approx. 21 days
# Text: (§3) Plastic pots were partially filled with silt loam soil. The soil was then saturated with water. […] After planting, water levels were raised to 3 cm above the soil surface and maintained at this level throughout the test. Chemical treatments were formulated in a non-phytotoxic solvent and applied directly to the paddy water. Treated plants and controls were maintained in a greenhouse for approximately 21 days, after which all species were compared to controls and visually evaluated. […] A dash (-) response means no test result.
# umbrella sedge = experiment: as above; assay type: in vivo, Cyperus difformis; details: 0 to 100 scale, approx. 21 days
# Text: as §3
# Japonica rice [4] = experiment: as above; assay type: in vivo, Oryza sativa; details: 0 to 100 scale, approx. 21 days
# Text: as §3
# duck salad = experiment: as above; assay type: in vivo, Heteranthera limosa; details: 0 to 100 scale, approx. 21 days
# Text: as §3
# waterchestnut = experiment: as above; assay type: in vivo, Eleocharis spp.; details: 0 to 100 scale, approx. 21 days
# Text: as §3
# arrowhead = experiment: as above; assay type: in vivo, Sagittaria spp.; details: 0 to 100 scale, approx. 21 days
# Text: as §3
smiles,measurement,setting,value
C#CC(C)N1C(=O)COc2cc(F)c(-c3nn4c(c3Cl)CCCC4)cc21 (stereo not drawn) [Compound 50],Rape plant response rating,rape; Rate 16 g/ha,100
same,Rape plant response rating,rape; Rate 32 g/ha,100
same,Rape plant response rating,rape; Rate 64 g/ha,100
same,Rape plant response rating,rape; Rate 125 g/ha,100
same,Wild buckwheat plant response rating,wild buckwheat; Rate 16 g/ha,40
same,Wild buckwheat plant response rating,wild buckwheat; Rate 32 g/ha,100
same,Wild buckwheat plant response rating,wild buckwheat; Rate 64 g/ha,100
same,Wild buckwheat plant response rating,wild buckwheat; Rate 125 g/ha,100
same,Sugar beet plant response rating,sugar beet; Rate 16 g/ha,100
same,Sugar beet plant response rating,sugar beet; Rate 32 g/ha,100
same,Sugar beet plant response rating,sugar beet; Rate 64 g/ha,100
same,Sugar beet plant response rating,sugar beet; Rate 125 g/ha,100
same,Green foxtail plant response rating,green foxtail; Rate 16 g/ha,0
same,Green foxtail plant response rating,green foxtail; Rate 32 g/ha,0
same,Green foxtail plant response rating,green foxtail; Rate 64 g/ha,50
same,Green foxtail plant response rating,green foxtail; Rate 125 g/ha,50
same,Blackgrass (1) plant response rating,blackgrass; Rate 16 g/ha,0
same,Blackgrass (2) plant response rating,blackgrass; Rate 16 g/ha,0
same,Blackgrass (1) plant response rating,blackgrass; Rate 32 g/ha,0
same,Blackgrass (2) plant response rating,blackgrass; Rate 32 g/ha,0
same,Blackgrass (1) plant response rating,blackgrass; Rate 64 g/ha,0
same,Blackgrass (2) plant response rating,blackgrass; Rate 64 g/ha,0
same,Blackgrass (1) plant response rating,blackgrass; Rate 125 g/ha,40
same,Blackgrass (2) plant response rating,blackgrass; Rate 125 g/ha,20
same,Persn Speedwell plant response rating,speedwell; Rate 16 g/ha,100
same,Persn Speedwell plant response rating,speedwell; Rate 32 g/ha,100
same,Persn Speedwell plant response rating,speedwell; Rate 64 g/ha,100
same,Persn Speedwell plant response rating,speedwell; Rate 125 g/ha,100
same,Barnyardgrass 2 plant response rating,barnyardgrass [1]; Rate 8 g/ha,15
same,Barnyardgrass 3 plant response rating,barnyardgrass [1]; Rate 8 g/ha,10
same,Barnyardgrass 2 plant response rating,barnyardgrass [1]; Rate 16 g/ha,15
same,Barnyardgrass 3 plant response rating,barnyardgrass [1]; Rate 16 g/ha,15
same,Barnyardgrass 2 plant response rating,barnyardgrass [1]; Rate 32 g/ha,25
same,Barnyardgrass 3 plant response rating,barnyardgrass [1]; Rate 32 g/ha,20
same,Barnyardgrass 2 plant response rating,barnyardgrass [1]; Rate 64 g/ha,35
same,Barnyardgrass 3 plant response rating,barnyardgrass [1]; Rate 64 g/ha,35
same,Barnyardgrass 2 plant response rating,barnyardgrass [1]; Rate 125 g/ha,55
same,Barnyardgrass 3 plant response rating,barnyardgrass [1]; Rate 125 g/ha,60
same,Japonica 1 plant response rating,Japonica rice [2]; Rate 8 g/ha,0
same,Japonica 2 plant response rating,Japonica rice [2]; Rate 8 g/ha,15
same,Japonica 1 plant response rating,Japonica rice [2]; Rate 16 g/ha,20
same,Japonica 2 plant response rating,Japonica rice [2]; Rate 16 g/ha,20
same,Japonica 1 plant response rating,Japonica rice [2]; Rate 32 g/ha,40
same,Japonica 2 plant response rating,Japonica rice [2]; Rate 32 g/ha,30
same,Japonica 1 plant response rating,Japonica rice [2]; Rate 64 g/ha,50
same,Japonica 2 plant response rating,Japonica rice [2]; Rate 64 g/ha,35
same,Japonica 1 plant response rating,Japonica rice [2]; Rate 125 g/ha,75
same,Japonica 2 plant response rating,Japonica rice [2]; Rate 125 g/ha,45
C#CC(C)Oc1cc(-c2nn3c(c2Cl)CCCC3)c(F)cc1Cl (stereo not drawn) [Compound 36],Barnyardgrass 2 plant response rating,barnyardgrass [3]; Rate 4 g/ha,30
same,Barnyardgrass 2 plant response rating,barnyardgrass [3]; Rate 8 g/ha,65
same,Barnyardgrass 2 plant response rating,barnyardgrass [3]; Rate 16 g/ha,80
same,Barnyardgrass 2 plant response rating,barnyardgrass [3]; Rate 32 g/ha,100
same,Barnyardgrass 2 plant response rating,barnyardgrass [3]; Rate 64 g/ha,100
same,Rape plant response rating,rape; Rate 8 g/ha,40
same,Rape plant response rating,rape; Rate 16 g/ha,100
same,Rape plant response rating,rape; Rate 32 g/ha,100
same,Wild buckwheat plant response rating,wild buckwheat; Rate 16 g/ha,100
same,Wild buckwheat plant response rating,wild buckwheat; Rate 32 g/ha,100
same,Umbrella sedge plant response rating,umbrella sedge; Rate 4 g/ha,0
same,Umbrella sedge plant response rating,umbrella sedge; Rate 8 g/ha,0
same,Umbrella sedge plant response rating,umbrella sedge; Rate 16 g/ha,60
same,Umbrella sedge plant response rating,umbrella sedge; Rate 32 g/ha,70
same,Umbrella sedge plant response rating,umbrella sedge; Rate 64 g/ha,80
same,Japonica rice plant response rating,Japonica rice [4]; Rate 4 g/ha,10
same,Japonica rice plant response rating,Japonica rice [4]; Rate 8 g/ha,10
same,Japonica rice plant response rating,Japonica rice [4]; Rate 16 g/ha,15
same,Japonica rice plant response rating,Japonica rice [4]; Rate 32 g/ha,20
same,Japonica rice plant response rating,Japonica rice [4]; Rate 64 g/ha,25
same,Duck salad plant response rating,duck salad; Rate 4 g/ha,0
same,Duck salad plant response rating,duck salad; Rate 8 g/ha,0
same,Duck salad plant response rating,duck salad; Rate 16 g/ha,20
same,Duck salad plant response rating,duck salad; Rate 32 g/ha,30
same,Duck salad plant response rating,duck salad; Rate 64 g/ha,60
same,Sugar beet plant response rating,sugar beet; Rate 4 g/ha,100
same,Sugar beet plant response rating,sugar beet; Rate 8 g/ha,100
same,Sugar beet plant response rating,sugar beet; Rate 16 g/ha,100
same,Sugar beet plant response rating,sugar beet; Rate 32 g/ha,100
same,Green foxtail plant response rating,green foxtail; Rate 4 g/ha,0
same,Green foxtail plant response rating,green foxtail; Rate 8 g/ha,40
same,Green foxtail plant response rating,green foxtail; Rate 16 g/ha,50
same,Green foxtail plant response rating,green foxtail; Rate 32 g/ha,50
same,Blackgrass (1) plant response rating,blackgrass; Rate 4 g/ha,0
same,Blackgrass (2) plant response rating,blackgrass; Rate 4 g/ha,0
same,Blackgrass (1) plant response rating,blackgrass; Rate 8 g/ha,0
same,Blackgrass (2) plant response rating,blackgrass; Rate 8 g/ha,0
same,Blackgrass (1) plant response rating,blackgrass; Rate 16 g/ha,0
same,Blackgrass (2) plant response rating,blackgrass; Rate 16 g/ha,10
same,Blackgrass (1) plant response rating,blackgrass; Rate 32 g/ha,5
same,Blackgrass (2) plant response rating,blackgrass; Rate 32 g/ha,20
same,Persn Speedwell plant response rating,speedwell; Rate 4 g/ha,100
same,Persn Speedwell plant response rating,speedwell; Rate 8 g/ha,100
same,Persn Speedwell plant response rating,speedwell; Rate 16 g/ha,100
same,Persn Speedwell plant response rating,speedwell; Rate 32 g/ha,100
same,Barnyardgrass 2 plant response rating,barnyardgrass [1]; Rate 8 g/ha,30
same,Barnyardgrass 3 plant response rating,barnyardgrass [1]; Rate 8 g/ha,30
same,Barnyardgrass 2 plant response rating,barnyardgrass [1]; Rate 16 g/ha,40
same,Barnyardgrass 3 plant response rating,barnyardgrass [1]; Rate 16 g/ha,35
same,Barnyardgrass 2 plant response rating,barnyardgrass [1]; Rate 32 g/ha,55
same,Barnyardgrass 3 plant response rating,barnyardgrass [1]; Rate 32 g/ha,40
same,Barnyardgrass 2 plant response rating,barnyardgrass [1]; Rate 64 g/ha,65
same,Barnyardgrass 3 plant response rating,barnyardgrass [1]; Rate 64 g/ha,50
same,Barnyardgrass 2 plant response rating,barnyardgrass [1]; Rate 125 g/ha,100
same,Barnyardgrass 3 plant response rating,barnyardgrass [1]; Rate 125 g/ha,75
same,Japonica 1 plant response rating,Japonica rice [2]; Rate 8 g/ha,15
same,Japonica 2 plant response rating,Japonica rice [2]; Rate 8 g/ha,10
same,Japonica 1 plant response rating,Japonica rice [2]; Rate 16 g/ha,20
same,Japonica 2 plant response rating,Japonica rice [2]; Rate 16 g/ha,0
same,Japonica 1 plant response rating,Japonica rice [2]; Rate 32 g/ha,20
same,Japonica 2 plant response rating,Japonica rice [2]; Rate 32 g/ha,15
same,Japonica 1 plant response rating,Japonica rice [2]; Rate 64 g/ha,25
same,Japonica 2 plant response rating,Japonica rice [2]; Rate 64 g/ha,15
same,Japonica 1 plant response rating,Japonica rice [2]; Rate 125 g/ha,25
same,Japonica 2 plant response rating,Japonica rice [2]; Rate 125 g/ha,20
same,Waterchestnut plant response rating,waterchestnut; Rate 4 g/ha,10
same,Waterchestnut plant response rating,waterchestnut; Rate 8 g/ha,10
same,Waterchestnut plant response rating,waterchestnut; Rate 16 g/ha,20
same,Waterchestnut plant response rating,waterchestnut; Rate 32 g/ha,20
same,Waterchestnut plant response rating,waterchestnut; Rate 64 g/ha,20
same,Arrowhead plant response rating,arrowhead; Rate 4 g/ha,0
same,Arrowhead plant response rating,arrowhead; Rate 8 g/ha,0
same,Arrowhead plant response rating,arrowhead; Rate 16 g/ha,0
same,Arrowhead plant response rating,arrowhead; Rate 32 g/ha,0
same,Arrowhead plant response rating,arrowhead; Rate 64 g/ha,0
